Assay results: US9896512B2, “Antitumor peptide derived from a complementarity determining region of a humanized monoclonal antibody to NAP12B transporter” (Recepta Biopharma S.A., priority 2010, dated 2018)
No end group written: not given here.

System: melanoma B16F10-Nex2 cells
Assay: Alanine scanning series cell adhesion assay (MTT after trypsin-EDTA)
Format: cell-based, murine
Details: 1 mM peptide, 24 hours
Protocol: The peptide RB10 (SEQ ID NO: 9) was engineered to replace each amino acid by alanine using Ala-scan methodology, and thus help evaluate the role of each amino acid on biological effect, specifically on the hyper-adherence observed with 1 mM peptide.
For this purpose, viable melanoma B16F10-Nex2 cells (1×10^4)/well were distributed on a 96-well culture plate and incubated for 4 hours. Fresh media containing 1 mM of the alanine-scanning series for RB10 was added and incubated for 24 hours. Treated cells were detached with 30 μl/well of trypsin-EDTA for five minutes at 37° C. and gently washed with PBS. Cells were incubated for 4 hours with 0.5 mg/mL of MTT [3-(4,5-Dimethylthiazol-2-yl)-2,5-diphenyltetrazolium bromide] in fresh media and the formazan crystals were solubilized adding 1 volume of a 10% SDS solution overnight. Intensity was measured using a plate reader at 570 nm. […] The 100% value for each peptide represented the treated cells that had not been trypsinized.

## CARGETARATFAYWGQG-NH2 [RB10, CARGETARATFAYWGQG-NH2]
  trypsin/EDTA-resistant cell adherence: high trypsin/EDTA-resistant cell adherence
